Assay results from patent publication US11725036B2, “Modified lipidated relaxin B chain peptides and their therapeutic use” (Sanofi, priority 2018, dated 2023).
Starred links: 1 amine or outer side, 2 acyl side, 3 side chain; linkers in the order of their positions; H or OH if unused. Non-standard residues stand in square brackets, D forms with d. Residues, ends and D or L forms follow the SMILES beside them. Groups on a side chain read outwards from the residue. *: point of attachment. X16 = CCCCCCCCCCCCCCCCCC(=O)N[C@@H](CCC(=O)N[C@@H](CCC(=O)N[C@@H](CCC(=O)NCCCOCCOCCOCCCNC(=O)CCC(=O)NCCCOCCOCCOCCCNC(=O)CCC(=O)NCCCOCCOCCOCCCNC(=O)CCC(=O)NCCCOCCOCCOCCCN*)C(=O)O)C(=O)O)C(=O)O; X1 = CCCCCCCCCCCCCCCC(=O)N[C@@H](CCC(=O)N[C@@H](CCC(=O)N[C@@H](CCC(=O)NCCCOCCOCCOCCCNC(=O)CCC(=O)NCCCOCCOCCOCCCNC(=O)CCC(=O)NCCCOCCOCCOCCCN*)C(=O)O)C(=O)O)C(=O)O; X14 = CCCCCCCCCCCCCCCCCC(=O)N[C@@H](CCC(=O)N[C@@H](CCC(=O)N[C@@H](CCC(=O)N[C@@H](CCC(=O)NCCCOCCOCCOCCCNC(=O)CCC(=O)NCCCOCCOCCOCCCN*)C(=O)O)C(=O)O)C(=O)O)C(=O)O; Suc = O=C(CCC(=O)[*:2])[*:1]; Aib = CC(C)(N)C(=O)O

Target: T1, RXFP1 (Homo sapiens, UniProt Q9HBX9)
T1 construct: OVCAR5 cells expressing endogenous RXFP1; endogenous in cells; host or cells: OVCAR5
T1 sequence (Q9HBX9 1-757): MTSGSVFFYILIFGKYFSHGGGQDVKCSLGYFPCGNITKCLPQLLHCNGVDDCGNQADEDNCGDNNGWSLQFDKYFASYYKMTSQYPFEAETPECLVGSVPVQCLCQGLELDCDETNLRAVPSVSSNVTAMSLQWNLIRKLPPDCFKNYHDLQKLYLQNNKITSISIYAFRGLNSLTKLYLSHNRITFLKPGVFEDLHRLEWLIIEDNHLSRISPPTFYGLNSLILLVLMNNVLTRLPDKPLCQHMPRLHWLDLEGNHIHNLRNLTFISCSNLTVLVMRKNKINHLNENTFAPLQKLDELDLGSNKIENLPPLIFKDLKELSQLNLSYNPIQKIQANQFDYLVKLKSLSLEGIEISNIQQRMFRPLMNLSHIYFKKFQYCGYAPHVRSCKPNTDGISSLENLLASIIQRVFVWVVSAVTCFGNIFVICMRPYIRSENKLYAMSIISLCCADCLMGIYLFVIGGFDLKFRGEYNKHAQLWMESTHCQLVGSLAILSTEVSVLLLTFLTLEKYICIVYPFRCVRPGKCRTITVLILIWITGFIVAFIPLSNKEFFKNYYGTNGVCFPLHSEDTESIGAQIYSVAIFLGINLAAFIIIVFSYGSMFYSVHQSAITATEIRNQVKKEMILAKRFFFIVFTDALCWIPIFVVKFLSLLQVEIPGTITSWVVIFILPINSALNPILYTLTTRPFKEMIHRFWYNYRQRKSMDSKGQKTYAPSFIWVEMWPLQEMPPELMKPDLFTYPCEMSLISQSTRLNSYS
Assay: OVCAR5 cAMP assay (HTRF)
Format: cell-based
Settings: for Emax: OVCAR 5 cells, maximal cAMP relative to H2-relaxin; for EC50: OVCAR 5 cells expressing endogenous RXFP1, cAMP readout
Procedure, shortened: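 Peptide agonism measured as intracellular cAMP (HTRF) after 30 min at 37° C in serum-free medium, following 40 min 1 mM IBMX preincubation of OVCAR5 cells. Nonlinear regression gave EC50; Emax % = 100 × compound maximal cAMP / H2-relaxin maximal cAMP.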

CCCCCCCCCCCCCCCCCC(=O)N[C@@H](CCC(=O)N[C@@H](CCC(=O)N[C@@H](CCC(=O)NCCCOCCOCCOCCCNC(=O)CCC(=O)NCCCOCCOCCOCCCNC(=O)CCC(=O)NCCCOCCOCCOCCCNC(=O)CCC(=O)NCCCOCCOCCOCCCNC(=O)CCC(=O)NCCCC[C@H](NC(=O)CNC(=O)[C@H](CCC(=O)O)NC(=O)C(C)(C)NC(=O)C(C)(C)NC(=O)[C@@H](NC(=O)[C@H](CCCCNC(C)=O)NC(=O)[C@H](C)NC(=O)[C@H](CCCNC(=N)N)NC(=O)[C@@H](NC(=O)[C@H](CCCCN)NC(=O)[C@H](CCC(=O)O)NC(=O)[C@H](CCCNC(=N)N)NC(=O)CNC(=O)[C@H](CCC(=O)O)NC(=O)[C@H](CC(C)C)NC(C)=O)C(C)C)[C@@H](C)CC)C(=O)N[C@@H](CO)C(=O)N[C@H](C(=O)N[C@@H](Cc1c[nH]c2ccccc12)C(=O)N[C@@H](CO)C(=O)NC(C)(C)C(=O)N[C@@H](CCCNC(=N)N)C(=O)N[C@@H](CCCCN)C(=O)N[C@@H](CCCCNC(C)=O)C(N)=O)[C@@H](C)O)C(=O)O)C(=O)O)C(=O)O [compound 58] (Ac-LEGREKVRAK(Ac)I[Aib][Aib]EGK([Suc-X16])STWS[Aib]RKK(Ac)-NH2)
Emax: 98%

CCCCCCCCCCCCCCCC(=O)N[C@@H](CCC(=O)N[C@@H](CCC(=O)N[C@@H](CCC(=O)NCCCOCCOCCOCCCNC(=O)CCC(=O)NCCCOCCOCCOCCCNC(=O)CCC(=O)NCCCOCCOCCOCCCNC(=O)CCC(=O)NCCCC[C@H](NC(=O)CNC(=O)[C@H](CCC(=O)O)NC(=O)C(C)(C)NC(=O)C(C)(C)NC(=O)[C@@H](NC(=O)[C@H](CCCCNC(C)=O)NC(=O)[C@H](C)NC(=O)[C@H](CCCNC(=N)N)NC(=O)[C@@H](NC(=O)[C@H](CCCCN)NC(=O)[C@H](CCC(=O)O)NC(=O)[C@H](CCCNC(=N)N)NC(=O)CNC(=O)[C@H](CCC(=O)O)NC(=O)[C@H](CC(C)C)NC(C)=O)C(C)C)[C@@H](C)CC)C(=O)N[C@@H](CO)C(=O)N[C@H](C(=O)N[C@@H](Cc1ccccc1)C(=O)N[C@@H](CO)C(=O)N[C@@H](CCCNC(=N)N)C(=O)N[C@@H](CCCNC(=N)N)C(=O)N[C@@H](C)C(=O)N[C@@H](CCCCNC(C)=O)C(N)=O)[C@@H](C)O)C(=O)O)C(=O)O)C(=O)O [compound 87] (Ac-LEGREKVRAK(Ac)I[Aib][Aib]EGK([Suc-X1])STFSRRAK(Ac)-NH2)
EC50: 0.1 nM
Emax: 96%

CCCCCCCCCCCCCCCCCC(=O)N[C@@H](CCC(=O)N[C@@H](CCC(=O)N[C@@H](CCC(=O)N[C@@H](CCC(=O)NCCCOCCOCCOCCCNC(=O)CCC(=O)NCCCOCCOCCOCCCNC(=O)CCC(=O)NCCCC[C@H](NC(=O)CNC(=O)[C@H](CCC(=O)O)NC(=O)C(C)(C)NC(=O)C(C)(C)NC(=O)[C@@H](NC(=O)[C@H](CCCCNC(C)=O)NC(=O)[C@H](C)NC(=O)[C@H](CCCNC(=N)N)NC(=O)[C@@H](NC(=O)[C@H](CCCCN)NC(=O)[C@H](CCC(=O)O)NC(=O)[C@H](CCCNC(=N)N)NC(=O)CNC(=O)[C@H](CCC(=O)O)NC(=O)[C@H](CC(C)C)NC(C)=O)C(C)C)[C@@H](C)CC)C(=O)N[C@@H](CO)C(=O)N[C@H](C(=O)N[C@@H](Cc1c[nH]c2ccccc12)C(=O)N[C@@H](CO)C(=O)NC(C)(C)C(=O)N[C@@H](CCCNC(=N)N)C(=O)N[C@@H](CCCCN)C(=O)N[C@@H](CCCCNC(C)=O)C(N)=O)[C@@H](C)O)C(=O)O)C(=O)O)C(=O)O)C(=O)O [compound 54] (Ac-LEGREKVRAK(Ac)I[Aib][Aib]EGK([Suc-X14])STWS[Aib]RKK(Ac)-NH2)
EC50: 0.16 nM
Emax: 96%
